In US20190047966A1, “NOVEL COMPOUND AND PHARMACOLOGICALLY ACCEPTABLE SALT THEREOF” (MEIJI SEIKA PHARMA CO., LTD., priority 2016, published 2019) one finds Ki data, which are given here for 23 compounds.

Test [1] concerns the target T1, human histamine H4 receptor (Homo sapiens, UniProt Q9H3N8).
T1 construct: purchased PerkinElmer Inc; host or cells: CHO-K1
The test is described as follows: Evaluation of Human H4 Receptor Affinity ([3H]histamine binding). As to conditions: inhibition constant Ki, CHO-K1 membrane preparation, read-out: Evaluation of H4 Receptor Affinity. On the procedure:
Test Example 2: Evaluation of Human H4 Receptor Affinity
Membrane preparation from recombinant CHO-K1 cell expressing the human histamine H4 receptor (PerkinElmer Inc.), radiolabeled ligand 8.2 nM [^3H]histamine (PerkinElmer Inc.), and compounds dissolved in DMSO were reacted at 25° C. for 90 minutes in a buffering solution containing 50 mM tris-hydrochloric acid, pH 7.4, and 1.25 mM EDTA on a 96 well plate, followed by filtration using a GF/B filter (PerkinElmer Inc.) pretreated with 0.3% polyethylenimine. The residue was washed four times with a buffering solution of 50 mM tris-hydrochloric acid, pH 7.4. Thereafter, a scintillation cocktail (MicroScint 20: PerkinElmer Inc.) was added to the GF/B filter, and the radioactivity of each well was measured using a liquid scintillation counter for 96-well (TopCount: PerkinElmer Inc.). The non-specific binding was evaluated in the presence of 1.0 μM histamine. The inhibition constant Ki was calculated from the 50% inhibitory concentration (IC50 value) obtained in each test and the Kd value (5.7 nM) unique to this assay system, according to the Cheng-Prusoff equation.

For test [2], the target named is human histamine H1 receptor (Homo sapiens, UniProt P35367). The test can be described thus: Evaluation of Human H1 Receptor Affinity ([3H]pyrilamine binding). As to conditions: inhibition constant Ki, CHO-K1 membrane preparation. The arrangement: purchased PerkinElmer Inc; host or cells: CHO-K1. The procedure:
Test Example 1: Evaluation of Human H1 Receptor Affinity
Membrane preparation from recombinant CHO-K1 cell expressing the human histamine H1 receptor (PerkinElmer Inc.), radiolabeled ligand 1.2 nM [^3H]pyrilamine (PerkinElmer Inc.), and test compounds dissolved in DMSO were reacted at 25° C. for 3 hours in a buffering solution containing 50 mM tris-hydrochloric acid, pH 7.4, and 5 mM magnesium chloride on a 96 well plate, followed by filtration using a GF/B filter (PerkinElmer Inc.) pretreated with 0.3% polyethylenimine. The residue was washed four times with a buffering solution of 50 mM tris-hydrochloric acid, pH 7.4. Thereafter, a scintillation cocktail (MicroScint 20: PerkinElmer Inc.) was added to the GF/B filter, and the radioactivity of each well was measured using a liquid scintillation counter for 96-well (TopCount: PerkinElmer Inc.). The non-specific binding was evaluated in the presence of 1.0 μM pyrilamine. The inhibition constant Ki was calculated from the 50% inhibitory concentration (IC50 value) obtained in each test and the Kd value (1.1 nM) unique to this assay system, according to the Cheng-Prusoff equation.

Where a name gives a salt, the structure may show the parent alone.

human histamine H1 receptor, sequence (P35367 whole entry): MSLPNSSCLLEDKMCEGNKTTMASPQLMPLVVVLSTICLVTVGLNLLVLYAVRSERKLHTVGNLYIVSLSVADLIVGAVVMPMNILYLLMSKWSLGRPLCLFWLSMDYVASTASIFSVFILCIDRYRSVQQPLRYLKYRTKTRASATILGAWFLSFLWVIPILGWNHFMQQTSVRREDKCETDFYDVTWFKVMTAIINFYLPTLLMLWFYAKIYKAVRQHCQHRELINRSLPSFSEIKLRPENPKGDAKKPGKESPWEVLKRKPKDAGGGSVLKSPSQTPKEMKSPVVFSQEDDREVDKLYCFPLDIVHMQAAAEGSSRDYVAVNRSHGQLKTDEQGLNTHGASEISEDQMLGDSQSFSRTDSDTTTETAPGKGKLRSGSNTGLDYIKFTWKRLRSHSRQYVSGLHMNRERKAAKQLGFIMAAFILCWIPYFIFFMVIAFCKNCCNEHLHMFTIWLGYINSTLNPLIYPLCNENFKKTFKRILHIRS
T1 sequence (Q9H3N8 whole entry): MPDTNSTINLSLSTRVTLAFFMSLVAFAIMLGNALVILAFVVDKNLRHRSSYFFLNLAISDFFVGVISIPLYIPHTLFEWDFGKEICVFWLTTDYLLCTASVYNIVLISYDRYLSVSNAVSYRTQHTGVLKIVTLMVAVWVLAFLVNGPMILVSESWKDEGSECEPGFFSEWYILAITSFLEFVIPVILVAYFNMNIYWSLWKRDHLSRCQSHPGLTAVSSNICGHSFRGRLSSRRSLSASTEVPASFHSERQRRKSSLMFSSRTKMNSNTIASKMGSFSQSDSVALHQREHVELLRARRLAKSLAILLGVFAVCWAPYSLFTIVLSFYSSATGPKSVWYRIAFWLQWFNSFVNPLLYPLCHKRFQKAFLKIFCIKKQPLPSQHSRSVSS

As for `Nc1nc2c(c(N3CCN(CCO[C@H]4CC[C@@H](C(=O)O)CC4)CC3)n1)CCc1cc(OCc3ccc(Cl)cc3)ccc1-2` [Example 24, cis-4-(2-(4-(2-amino-8-((4-chlorobenzyl)oxy)-5,6-dihydrobenzo[h]quinazolin-4-yl)piperazin-1-yl)ethoxy)cyclohexane-1-carboxylic acid], the Ki is 100 to 500 nM in test [1] and less than 100 nM in test [2].

For the compound `Nc1nc2c(c(N3CCN(CCOC[C@H]4CC[C@@H](C(=O)O)CC4)CC3)n1)CCc1cc(OCc3ccc(OC(F)(F)F)cc3)ccc1-2` [Example 27, cis-4-((2-(4-(2-amino-8-((4-(trifluoromethoxy)benzyl)oxy)-5,6-dihydrobenzo[h]quinazolin-4-yl)piperazin-1-yl)ethoxy)methyl)cyclohexane-1-carboxylic acid dihydrochloride], the Ki in test [1] and in test [2] was less than 100 nM in each case.

Turning to `Nc1nc2c(c(N3CCN(CCO[C@H]4CC[C@H](C(=O)O)CC4)CC3)n1)CCc1cc(OCc3ccc(Cl)cc3)ccc1-2` [Example 28, trans-4-(2-(4-(2-amino-8-((4-chlorobenzyl)oxy)-5,6-dihydrobenzo[h]quinazolin-4-yl)piperazin-1-yl)ethoxy)cyclohexane-1-carboxylic acid], the Ki in test [1] and in test [2] was less than 100 nM in each case.

As to `Nc1nc2c(c(N3CCN(CCO[C@H]4C[C@H](C(=O)O)C4)CC3)n1)CCc1cc(OCc3ccc(OC(F)(F)F)cc3)ccc1-2` [Example 30, trans-3-(2-(4-(2-amino-8-((4-(trifluoromethoxy)benzyl)oxy)-5,6-dihydrobenzo[h]quinazolin-4-yl)piperazin-1-yl)ethoxy)cyclobutane-1-carboxylic acid], the Ki in test [1] and in test [2] was less than 100 nM in each case.

On to `CC1(C(=O)O)CC(OCCN2CCN(c3nc(N)nc4c3CCc3cc(OCc5ccc(OC(F)(F)F)cc5)ccc3-4)CC2)C1` (stereo not drawn) [Example 31, cis-3-(2-(4-(2-amino-8-((4-(trifluoromethoxy)benzyl)oxy)-5,6-dihydrobenzo[h]quinazolin-4-yl)piperazin-1-yl)ethoxy)-1-methylcyclobutane-1-carboxylic acid], for which the results for the Ki in test [1] and in test [2] were 100 to 500 nM and less than 100 nM, respectively.

Consider `Nc1nc2c(c(N3CCN(CCO[C@H]4C[C@@H](C(N)=O)C4)CC3)n1)CCc1cc(OCc3ccc(OC(F)(F)F)cc3)ccc1-2` [Example 33, cis 3-(2-(4-(2-amino-8-((4-(trifluoromethoxy)benzyl)oxy)-5,6-dihydrobenzo[h]quinazolin-4-yl)piperazin-1-yl)ethoxy)cyclobutane-1-carboxamide], for which the Ki in test [1] and in test [2] was less than 100 nM in each case.

For the compound `Nc1nc2c(c(N3CCN(CCO[C@H]4C[C@H](C(N)=O)C4)CC3)n1)CCc1cc(OCc3ccc(OC(F)(F)F)cc3)ccc1-2` [Example 34, trans-3-(2-(4-(2-amino-8-((4-(trifluoromethoxy)benzyl)oxy)-5,6-dihydrobenzo[h]quinazolin-4-yl)piperazin-1-yl)ethoxy)cyclobutane-1-carboxamide], the Ki in test [1] and in test [2] was less than 100 nM throughout.

As to `CN1CCN(c2nc(N)nc3c2CCc2cc(NS(=O)(=O)CCCOc4ccccc4)ccc2-3)CC1` [Example 40, N-(2-amino-4-(4-methylpiperazin-1-yl)-5,6-dihydrobenzo[h]quinazolin-8-yl)-3-phenoxypropane-1-sulfonamide], the Ki in test [1] and in test [2] was less than 100 nM each time.

In the case of `CN1CCN(c2nc(N)nc3c2CCc2cc(NS(=O)(=O)c4ccccc4)ccc2-3)CC1` [Example 41, N-(2-amino-4-(4-methylpiperazin-1-yl)-5,6-dihydrobenzo[h]quinazolin-8-yl)benzenesulfonamide], the Ki in test [1] and in test [2] was 100 to 500 nM in each case.

With `CN1CCN(c2nc(N)nc3c2CCc2cc(NS(=O)(=O)c4cccc(Cl)c4)ccc2-3)CC1` [Example 43, N-(2-amino-4-(4-methylpiperazin-1-yl)-5,6-dihydrobenzo[h]quinazolin-8-yl)-3-chlorobenzenesulfonamide], the Ki in test [1] and in test [2] was 100 to 500 nM throughout.

As to `CN1CCN(c2nc(N)nc3c2CCc2cc(NS(=O)(=O)c4ccc(Cl)s4)ccc2-3)CC1` [Example 44, N-(2-amino-4-(4-methylpiperazin-1-yl)-5,6-dihydrobenzo[h]quinazolin-8-yl)-5-chlorothiophene-2-sulfonamide], the Ki in test [1] and in test [2] was 100 to 500 nM in each case.

In the case of `CN1CCN(c2nc(N)nc3c2CCc2cc(NS(=O)(=O)c4ccc(Cl)c(F)c4)ccc2-3)CC1` [Example 45, N-(2-amino-4-(4-methylpiperazin-1-yl)-5,6-dihydrobenzo[h]quinazolin-8-yl)-4-chloro-3-fluorobenzenesulfonamide], the Ki in test [1] was 100 to 500 nM; in test [2] it was less than 100 nM.

For `CN1CCN(c2nc(N)nc3c2CCc2cc(NS(=O)(=O)c4ccc(Cl)cc4F)ccc2-3)CC1` [Example 46, N-(2-amino-4-(4-methylpiperazin-1-yl)-5,6-dihydrobenzo[h]quinazolin-8-yl)-4-chloro-2-fluorobenzenesulfonamide], the Ki is 100 to 500 nM in test [1] and less than 100 nM in test [2].

For the compound `CN1CCN(c2nc(N)nc3c2CCc2cc(NS(=O)(=O)c4ccc(C#N)cc4)ccc2-3)CC1` [Example 47, N-(2-amino-4-(4-methylpiperazin-1-yl)-5,6-dihydrobenzo[h]quinazolin-8-yl)-4-cyanobenzenesulfonamide], the Ki in test [1] and in test [2] was 100 to 500 nM throughout.

Consider `CN1CCN(c2nc(N)nc3c2CCc2cc(NS(=O)(=O)Cc4ccccc4)ccc2-3)CC1` [Example 48, N-(2-amino-4-(4-methylpiperazin-1-yl)-5,6-dihydrobenzo[h]quinazolin-8-yl)-1-phenylmethanesulfonamide], for which the Ki in test [1] and in test [2] was 100 to 500 nM throughout.

Take `CN1CCN(c2nc(N)nc3c2CCc2cc(NS(=O)(=O)c4ccc(Cl)nc4)ccc2-3)CC1` [Example 49, N-(2-amino-4-(4-methylpiperazin-1-yl)-5,6-dihydrobenzo[h]quinazolin-8-yl)-6-chloropyridine-3-sulfonamide]: the Ki in test [1] and in test [2] was 100 to 500 nM each time.

As for `CN1CCN(c2nc(N)nc3c2CCc2cc(NS(=O)(=O)c4ccc(F)cc4)ccc2-3)CC1` [Example 50, N-(2-amino-4-(4-methylpiperazin-1-yl)-5,6-dihydrobenzo[h]quinazolin-8-yl)-4-fluorobenzenesulfonamide], the Ki in test [1] and in test [2] was less than 100 nM each time.

Turning to `CN1CCN(c2nc(N)nc3c2CCc2cc(NS(=O)(=O)CCc4ccccc4)ccc2-3)CC1` [Example 51, N-(2-amino-4-(4-methylpiperazin-1-yl)-5,6-dihydrobenzo[h]quinazolin-8-yl)-6-phenylethane-1-sulfonamide], the Ki in test [1] and in test [2] was less than 100 nM throughout.

For `CN1CCN(c2nc(N)nc3c2CCc2cc(NS(=O)(=O)CCCc4ccccc4)ccc2-3)CC1` [Example 52, N-(2-amino-4-(4-methylpiperazin-1-yl)-5,6-dihydrobenzo[h]quinazolin-8-yl)-3-phenylpropane-1-sulfonamide], the Ki in test [1] and in test [2] was less than 100 nM in each case.

For the compound `COc1ccc(S(=O)(=O)Nc2ccc3c(c2)CCc2c-3nc(N)nc2N2CCN(C)CC2)cc1` [Example 53, N-(2-amino-4-(4-methylpiperazin-1-yl)-5,6-dihydrobenzo[h]quinazolin-8-yl)-4-methoxybenzenesulfonamide], the Ki in test [1] is 100 to 500 nM; in test [2], less than 100 nM.

`COC(=O)c1ccc(S(=O)(=O)Nc2ccc3c(c2)CCc2c-3nc(N)nc2N2CCN(C)CC2)cc1` [Example 55, methyl 4-(N-(2-amino-4-(4-methylpiperazin-1-yl)-5,6-dihydrobenzo[h]quinazolin-8-yl)sulfamoyl)benzoate]: the Ki in test [1] and in test [2] was 100 to 500 nM in each case.

Take `CN1CCN(c2nc(N)nc3c2CCc2cc(NS(=O)(=O)C4CCCCC4)ccc2-3)CC1` [Example 56, N-(2-amino-4-(4-methylpiperazin-1-yl)-5,6-dihydrobenzo[h]quinazolin-8-yl)cyclohexanesulfonamide]: the Ki in test [1] and in test [2] was 100 to 500 nM each time.

Consider `CN[C@H]1CCN(c2nc(N)nc3c2CCc2cc(OCc4ccccc4)ccc2-3)C1` [Example 101, (S)-8-(benzyloxy)-4-(3-(methylamino)pyrrolidin-1-yl)-5,6-dihydrobenzo[h]quinazolin-2-amine], for which the Ki in test [1] was less than 100 nM; in test [2], 100 to 500 nM.
